In patent US9068170B2, “Generation of pluripotent stem cells using recombinant proteins” (THE SCRIPPS RESEARCH INSTITUTE, priority 2008, dated 2015):
Entries after “also recorded” stand apart in the source; their conditions may differ.

Key:
reprogramming efficiency = settings: HDAC inhibitor; Huangfu et al. 2008a; cited from earlier work
Mouse fibroblasts = experiment: Induction of pluripotency in mouse fibroblasts by intermittent incubation with poly-Arg transcription factor proteins (Example 1); type: cell-based; settings: added and/or combined during protein treatment of mouse fibroblasts
Description: Mouse fibroblasts were grown in mESC medium supplemented with 8 μg/ml of either Oct4/Sox2/Klf4 or Oct4/Sox2/Klf4/Myc (all proteins comprising poly-Arg as described above) for 6-8 hours, washed, and incubated for 2-3 days in mESC media without the above-listed transcription factors. This (4-12 hours with, 1-3 days without) was repeated a number (1, 2, 3, 4, or more) of times and then the cells were cultures in mESC for two weeks.

[1] = test system: mouse fibroblast cells treated with exogenous Oct4/Sox2/Klf4/Myc polypeptides; experiment: Oct4-positive colonies from an intermediate iPSC clone after small molecule treatment (Example 3, FIG. 5); type: cell-based; settings: combined treatment 0.5 μM PD0325901, 3 μM CHIR99021, 0.5 μM A-83-01, counted 2 weeks after treatment
Description: FIG. 5. […] A comparison of the number of Oct4^+ iPS cell colonies generated from mouse fibroblast cells treated with exogenous Oct4/Sox2/Klf4/Myc polypeptides, and with or without 0.5 μM PD0325901, 3 μM CHIR99021, and 0.5 μM A-83-01. Y-axis represents percentage of Oct4′ colonies within total number of colonies.
We tested the TGFβ receptor inhibitor (A-83-01), MEK inhibitor (PD0325901) and GSK-3 inhibitor (CHIR99021), on mouse fibroblast cells that were treated with exogenous Oct4, Klf4, Sox2 and c-Myc polypeptides, for their effects on reprogramming kinetics and efficiency.
Mouse fibroblasts were grown in mESC growth medium [Knockout DMEM (Invitrogen) supplemented with 10% ES-FBS+10% KSR, 0.1 mM 2-ME, 1% Glutamax, 1% Non-essential amino acids, 1% EmbryoMax ESC Qualified Nucleosides (Millipore), and 10^3 units/ml LIF (ESGRO, Chemicon International)] supplemented with 8 μg/ml of Oct4/Sox2/Klf4/Myc (all four transcription factors are tagged with poly-Arg […]; SEQ ID NO:2) for 4-12 hours, followed by culturing the cells in the absence of the Oct4/Sox2/Klf4/Myc polypeptides for one day. This procedure was repeated 4 times. The cells were then cultured in mESC medium for another two weeks. iPSC clones were detected by colony morphology and expression of pluripotency markers. An intermediate iPSC clone, which expresses ALP but not Oct4 (Oct4), was dissociated with Trypsin-EDTA. The clone was then expanded by continuous culturing with regular mESC medium or medium supplemented with 0.5 μM PD0325901, 3 μM CHIR99021, 0.5 μM A-83-01. The number of Oct4-positive colonies were counted 2 weeks after small molecule treatment (FIG. 5).

cellular reprogramming = experiment: Enhancement of cellular reprogramming by nuclear receptor ligands; type: cell-based

Compound | effect on efficiency and speed of development of pluripotent cells (Mouse fibroblasts) | effect on reprogramming efficiency and kinetics / iPSC generation (Oct4-positive colonies) [1] | also measured
CCCC(CCC)C(=O)O [valproic acid] |  |  | effect on reprogramming efficiency (reprogramming efficiency): can significantly improve the reprogramming efficiency
NC(=O)c1ccc(-c2nc(-c3ccc4c(c3)OCO4)c(-c3ccccn3)[nH]2)cc1 [SB431542] | improved efficiency and speed of development of pluripotent cells |  | 
Cc1c[nH]c(-c2cnc(NCCNc3ccc(C#N)cn3)nc2-c2ccc(Cl)cc2Cl)n1 [CHIR99021] | improved efficiency and speed of development of pluripotent cells | increases reprogramming efficiency and accelerates reprogramming kinetics; also recorded: enhanced iPSC generation | 
CC(C)C[C@H](NC(=O)OCC1c2ccccc2-c2ccccc21)C(=O)O [Fmoc-Leu] |  |  | effect on cellular reprogramming (cellular reprogramming; 5 μM): can enhance cellular reprogramming
Cc1cccc(-c2nn(C(=S)Nc3ccccc3)cc2-c2ccnc3ccccc23)n1 [A-83-01, 3-(6-Methyl-2-pyridinyl)-N-phenyl-4-(4-quinolinyl)-1H-pyrazole-1-carbothioamide] |  | increases reprogramming efficiency and accelerates reprogramming kinetics; also recorded: enhanced iPSC generation | 
O=C(NOC[C@H](O)CO)c1ccc(F)c(F)c1Nc1ccc(I)cc1F [PD0325901] | improved efficiency and speed of development of pluripotent cells | increases reprogramming efficiency and accelerates reprogramming kinetics | effect on reprogramming efficiency and kinetics / iPSC generation (Oct4-positive colonies) ([1]; listed as PD0320501): enhanced iPSC generation
C=C(c1ccc(C(=O)O)cc1)c1cc2c(cc1C)C(C)(C)CCC2(C)C [Bexarotene] |  |  | effect on cellular reprogramming (cellular reprogramming; 3 μM): can enhance cellular reprogramming
